Assay: Moisture uptake at 75% relative humidity, gravimetric
Format: physicochemical
Details: freeze dried matrices, 75% RH atmosphere, 8 hours; for moisture uptake (percentage weight increase): FIG. 1
Procedure: Following lyophilisation the resultant freeze dried matrices were exposed to a 75% RH (Relative Humidity) atmosphere for a period of 8 hours. At intervals over this period, moisture uptake of each sample was measured gravimetrically and calculated as a percentage weight increase of the sample.

Question: With `OC[C@@H](O)[C@@H](O)[C@H](O)[C@H](O)CO` [mannitol] as the compound, how does the “moisture uptake (percentage weight increase)” value read?
Answer: Its value is “no appreciable moisture uptake”.

Question: What does the source list for `OC[C@H]1O[C@H](O[C@H]2O[C@H](CO)[C@@H](O)[C@H](O)[C@H]2O)[C@H](O)[C@@H](O)[C@@H]1O` [trehalose]?
Answer: physical quality of sample after moisture exposure: deterioration in the physical quality; moisture uptake (percentage weight increase): significant moisture uptake

From patent US20080026065A1, “Powdered Compositions Of Sensitive Active Materials In An At Least Partially Amorphous State” (priority 2004, published 2008)
